In brackets after ≈: the same amount, converted by molar mass. Blank lines part the entries; values can stand above or below the compound they belong to.
Columns and labels:
Hepatitis C virus [1] = assay: Antiviral activity against Hepatitis C virus genotype 1b by cell-based assay; type: functional, organism-based, Hepacivirus hominis
Hepatitis C virus [2] = assay: Antiviral activity against Hepatitis C virus genotype 1a by cell-based assay; type: functional, organism-based, Hepacivirus hominis; details: subtype 1a
[3] = molecular target: Voltage-gated inwardly rectifying potassium channel KCNH2 (Homo sapiens, UniProt Q12809); assay: Inhibition of human ERG by fluorescence-based thallium flux assay
[4] = AUC (0 to 6 hrs) in rat at 10 mg/kg, po; type: ADME, organism-based; parameters: time < 6 hr, dose 10 mg/kg, route oral; details: plasma
Cytochrome P450 2C9 = Cytochrome P450 2C9 (Homo sapiens, UniProt P11712); assay: Inhibition of CYP2C9 in human liver microsomes after 30 mins in presence of NADPH; type: ADME
[5] = molecular target: T1, Nuclear receptor subfamily 1 group I member 2 (Homo sapiens, UniProt O75469); assay: Transactivation of human PXR expressed in human HepG2 cells by luciferase reporter gene assay; type: cell-based
T1 sequence (O75469 whole entry): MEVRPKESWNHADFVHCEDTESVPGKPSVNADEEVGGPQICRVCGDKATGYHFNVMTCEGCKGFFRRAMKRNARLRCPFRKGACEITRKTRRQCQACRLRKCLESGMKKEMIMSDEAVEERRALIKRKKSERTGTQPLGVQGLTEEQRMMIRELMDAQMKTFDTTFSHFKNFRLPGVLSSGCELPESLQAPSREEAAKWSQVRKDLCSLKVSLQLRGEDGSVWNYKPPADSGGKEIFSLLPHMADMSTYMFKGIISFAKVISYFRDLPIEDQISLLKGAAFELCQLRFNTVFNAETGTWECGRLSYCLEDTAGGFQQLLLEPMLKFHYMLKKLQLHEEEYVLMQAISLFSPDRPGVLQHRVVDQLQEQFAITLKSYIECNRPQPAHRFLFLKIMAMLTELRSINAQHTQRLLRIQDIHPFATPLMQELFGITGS

[6] = Drug uptake in rat liver at 10 mg/kg, po after 6 hrs; type: ADME, organism-based; parameters: dose 10 mg/kg, route oral; details: read-out: Drug uptake
Cytochrome P450 2C19 = Cytochrome P450 2C19 (Homo sapiens, UniProt P33261); assay: Inhibition of CYP2C19 in human liver microsomes after 30 mins in presence of NADPH; type: ADME
Hepatitis C virus [7] = assay: Antiviral activity against Hepatitis C virus Con1 genotype 1b infected in human HuH7 cells after 3 days by FRET assay in presence of 40% human serum; type: functional, organism-based, Hepacivirus hominis; details: isolate Con1, Huh-7, 72 h
Liver microsome [8] = details: human, microsomes
Hepatitis C virus [9] = assay: Antiviral activity against Hepatitis C virus Con1 genotype 1b infected in human HuH7 cells after 3 days by FRET assay; type: functional, organism-based, Hepacivirus hominis; details: isolate Con1, Huh-7, 72 h
[10] = Permeability of the compound at pH 7.4 by PAMPA; type: physicochemical; details: read-out: permeability
[11] = AUC (0 to 6 hrs) in rat at 5 mg/kg, iv; type: ADME, organism-based; parameters: time < 6 hr, dose 5 mg/kg, route intravenous; details: plasma
[12] = Plasma concentration in rat at 5 mg/kg, iv after 6 hrs; type: ADME, organism-based; parameters: dose 5 mg/kg, route intravenous
Liver microsome [13] = details: rat, microsomes
[14] = Cytotoxicity against human HuH7 cells by Alamar blue assay; type: cell-based; details: Huh-7 cells
[15] = molecular target: Sodium channel protein type 5 subunit alpha (Homo sapiens, UniProt Q14524); assay: Inhibition of human NaV1.5 expressed in HEK293 cells by fluorescence-based thallium flux assay; type: cell-based
Cytochrome P450 2D6 = Cytochrome P450 2D6 (Homo sapiens, UniProt P10635); assay: Inhibition of CYP2D6 in human liver microsomes after 30 mins in presence of NADPH; type: ADME
[16] = Plasma concentration in rat at 10 mg/kg, po after 6 hrs; type: ADME, organism-based; parameters: dose 10 mg/kg, route oral
[17] = Solubility of the compound in amorphous form in phosphate buffer at pH 6.5; type: physicochemical
Cytochrome P450 3A4 = Cytochrome P450 3A4 (Homo sapiens, UniProt P08684); assay: Inhibition of CYP3A4 in human liver microsomes using benzyloxyresorufin as substrate after 30 mins in presence of NADPH; type: ADME
[18] = Drug uptake in rat liver at 5 mg/kg, iv after 6 hrs; type: ADME, organism-based; parameters: dose 5 mg/kg, route intravenous; details: read-out: Drug uptake
Hepatitis C virus [19] = assay: Antiviral activity against Hepatitis C virus H77c genotype 1a infected in human HuH7 cells after 3 days by FRET assay; type: functional, organism-based, Hepacivirus hominis; details: genotype 1a H77, Huh-7, 72 h
[20] = Clearance in rat at 5 mg/kg, iv and 10 mg/kg, po; type: ADME, organism-based; details: in vivo
HepG2 = assay: Cytotoxicity against human HepG2 cells; type: cell-based
Cytochrome P450 1A2 = molecular target: T2, Cytochrome P450 1A2 (Homo sapiens, UniProt P05177); assay: Inhibition of CYP1A2 in human liver microsomes after 30 mins in presence of NADPH; type: ADME
T2 sequence (P05177 whole entry): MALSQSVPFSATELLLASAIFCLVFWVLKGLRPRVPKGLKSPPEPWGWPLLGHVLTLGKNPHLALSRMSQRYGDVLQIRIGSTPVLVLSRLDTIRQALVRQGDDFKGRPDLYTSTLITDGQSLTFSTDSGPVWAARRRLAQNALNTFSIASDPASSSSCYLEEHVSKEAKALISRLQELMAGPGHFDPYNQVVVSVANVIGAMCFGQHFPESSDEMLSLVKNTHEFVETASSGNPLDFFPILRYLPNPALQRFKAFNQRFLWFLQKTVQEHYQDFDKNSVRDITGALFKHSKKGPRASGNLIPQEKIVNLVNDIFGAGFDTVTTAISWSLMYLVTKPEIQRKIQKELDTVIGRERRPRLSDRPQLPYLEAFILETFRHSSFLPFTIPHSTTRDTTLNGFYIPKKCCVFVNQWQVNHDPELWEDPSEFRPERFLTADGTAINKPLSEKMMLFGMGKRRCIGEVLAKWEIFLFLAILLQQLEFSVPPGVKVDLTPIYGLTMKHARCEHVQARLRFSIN

[21] = Plasma concentration in rat at 5 mg/kg, iv after 4 hrs; type: ADME, organism-based; parameters: dose 5 mg/kg, route intravenous
[22] = AUC (0 to 4 hrs) in rat at 5 mg/kg, iv; type: ADME, organism-based; parameters: time < 4 hr, dose 5 mg/kg, route intravenous; details: plasma
[23] = Plasma clearance in rat at 5 mg/kg, iv; type: ADME, organism-based; parameters: dose 5 mg/kg, route intravenous
[24] = Drug uptake in rat liver at 10 mg/kg, po after 4 hrs; type: ADME, organism-based; parameters: dose 10 mg/kg, route oral; details: read-out: Drug uptake
[25] = Ratio of drug level in liver to plasma in rat at 5 mg/kg, iv after 4 hrs; type: ADME, organism-based; parameters: dose 5 mg/kg, route intravenous
[26] = Drug uptake in rat liver at 5 mg/kg, iv after 4 hrs; type: ADME, organism-based; parameters: dose 5 mg/kg, route intravenous; details: read-out: Drug uptake
[27] = AUC (0 to 4 hrs) in rat at 10 mg/kg, po; type: ADME, organism-based; parameters: time < 4 hr, dose 10 mg/kg, route oral; details: plasma
[28] = Plasma concentration in rat at 10 mg/kg, po after 4 hrs; type: ADME, organism-based; parameters: dose 10 mg/kg, route oral

Sequence of Cytochrome P450 2C19 (P33261 whole entry): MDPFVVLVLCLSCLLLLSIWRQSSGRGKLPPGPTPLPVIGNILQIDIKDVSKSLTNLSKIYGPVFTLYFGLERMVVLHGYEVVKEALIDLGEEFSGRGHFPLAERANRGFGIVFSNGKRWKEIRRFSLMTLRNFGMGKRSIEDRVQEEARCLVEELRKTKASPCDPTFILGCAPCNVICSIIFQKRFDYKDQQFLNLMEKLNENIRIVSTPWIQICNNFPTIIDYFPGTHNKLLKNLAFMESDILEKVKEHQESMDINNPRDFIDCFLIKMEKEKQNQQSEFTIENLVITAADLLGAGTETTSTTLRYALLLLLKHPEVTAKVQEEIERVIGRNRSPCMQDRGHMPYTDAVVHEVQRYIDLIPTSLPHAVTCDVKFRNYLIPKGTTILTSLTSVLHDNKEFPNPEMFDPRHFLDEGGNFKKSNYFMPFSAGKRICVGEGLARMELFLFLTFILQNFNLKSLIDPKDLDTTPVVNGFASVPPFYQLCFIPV
Sequence of Cytochrome P450 2C9 (P11712 whole entry): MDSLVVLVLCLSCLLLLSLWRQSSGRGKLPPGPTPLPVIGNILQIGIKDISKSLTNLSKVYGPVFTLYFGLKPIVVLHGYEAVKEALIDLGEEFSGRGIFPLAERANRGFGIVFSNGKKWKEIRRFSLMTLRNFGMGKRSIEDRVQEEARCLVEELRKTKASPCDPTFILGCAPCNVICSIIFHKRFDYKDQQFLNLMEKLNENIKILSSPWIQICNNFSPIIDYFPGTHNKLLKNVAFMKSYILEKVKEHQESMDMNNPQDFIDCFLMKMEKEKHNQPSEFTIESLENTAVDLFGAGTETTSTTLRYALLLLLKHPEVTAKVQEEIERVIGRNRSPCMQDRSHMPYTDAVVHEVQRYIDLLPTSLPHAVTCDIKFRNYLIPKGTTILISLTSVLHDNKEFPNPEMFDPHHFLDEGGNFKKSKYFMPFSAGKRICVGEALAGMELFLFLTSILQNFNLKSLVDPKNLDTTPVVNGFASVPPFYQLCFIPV
Sequence of Sodium channel protein type 5 subunit alpha (Q14524 whole entry): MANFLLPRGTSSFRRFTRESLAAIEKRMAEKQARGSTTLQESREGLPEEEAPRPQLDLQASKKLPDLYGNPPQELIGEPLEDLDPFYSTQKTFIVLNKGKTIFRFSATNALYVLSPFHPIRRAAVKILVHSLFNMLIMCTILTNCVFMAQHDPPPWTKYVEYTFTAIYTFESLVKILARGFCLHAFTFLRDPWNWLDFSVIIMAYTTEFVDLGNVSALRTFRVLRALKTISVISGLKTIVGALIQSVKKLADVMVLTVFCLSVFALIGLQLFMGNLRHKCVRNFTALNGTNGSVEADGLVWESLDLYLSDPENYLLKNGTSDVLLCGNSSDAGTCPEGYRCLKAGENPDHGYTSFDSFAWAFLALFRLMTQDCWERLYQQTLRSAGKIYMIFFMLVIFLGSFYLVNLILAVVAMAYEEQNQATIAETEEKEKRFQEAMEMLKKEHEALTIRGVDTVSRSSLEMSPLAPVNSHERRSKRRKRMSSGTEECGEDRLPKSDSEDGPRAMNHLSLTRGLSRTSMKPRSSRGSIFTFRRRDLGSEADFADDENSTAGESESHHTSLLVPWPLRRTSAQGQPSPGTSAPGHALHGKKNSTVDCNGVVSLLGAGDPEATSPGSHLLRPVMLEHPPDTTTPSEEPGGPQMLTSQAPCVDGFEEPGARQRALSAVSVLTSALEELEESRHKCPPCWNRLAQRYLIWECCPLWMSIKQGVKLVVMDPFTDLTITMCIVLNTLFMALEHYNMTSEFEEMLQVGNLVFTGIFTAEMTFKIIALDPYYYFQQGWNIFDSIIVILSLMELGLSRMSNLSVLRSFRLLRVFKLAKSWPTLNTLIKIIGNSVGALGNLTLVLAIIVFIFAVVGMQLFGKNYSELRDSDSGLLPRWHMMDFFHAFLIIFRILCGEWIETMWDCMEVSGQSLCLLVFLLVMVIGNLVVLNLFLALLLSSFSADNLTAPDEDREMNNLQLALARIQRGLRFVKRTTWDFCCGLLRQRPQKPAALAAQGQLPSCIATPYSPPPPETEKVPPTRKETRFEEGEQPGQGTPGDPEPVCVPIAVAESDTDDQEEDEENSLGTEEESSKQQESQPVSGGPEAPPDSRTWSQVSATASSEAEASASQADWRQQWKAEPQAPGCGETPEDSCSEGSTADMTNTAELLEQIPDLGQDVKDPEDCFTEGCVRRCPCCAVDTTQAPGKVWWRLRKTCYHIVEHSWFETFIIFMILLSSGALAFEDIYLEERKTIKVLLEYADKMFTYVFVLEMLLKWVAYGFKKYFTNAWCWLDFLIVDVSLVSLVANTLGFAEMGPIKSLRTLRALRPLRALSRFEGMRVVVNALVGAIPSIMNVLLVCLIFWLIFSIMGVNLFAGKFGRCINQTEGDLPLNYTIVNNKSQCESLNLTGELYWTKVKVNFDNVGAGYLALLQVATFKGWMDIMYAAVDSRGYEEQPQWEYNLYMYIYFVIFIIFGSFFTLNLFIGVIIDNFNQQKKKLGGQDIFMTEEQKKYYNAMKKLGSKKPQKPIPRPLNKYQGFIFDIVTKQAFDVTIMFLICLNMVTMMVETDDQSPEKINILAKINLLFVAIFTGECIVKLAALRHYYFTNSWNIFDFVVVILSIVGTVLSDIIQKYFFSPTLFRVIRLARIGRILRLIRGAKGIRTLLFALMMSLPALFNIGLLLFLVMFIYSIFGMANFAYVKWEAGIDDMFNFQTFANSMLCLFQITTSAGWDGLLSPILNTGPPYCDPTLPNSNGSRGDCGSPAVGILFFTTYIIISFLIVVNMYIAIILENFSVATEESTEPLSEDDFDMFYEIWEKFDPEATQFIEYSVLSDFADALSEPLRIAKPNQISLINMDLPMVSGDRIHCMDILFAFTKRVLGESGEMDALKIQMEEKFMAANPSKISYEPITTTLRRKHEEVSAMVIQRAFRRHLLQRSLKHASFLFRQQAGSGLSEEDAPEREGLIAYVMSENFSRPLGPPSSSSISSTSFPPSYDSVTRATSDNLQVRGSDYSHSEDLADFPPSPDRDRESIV
Sequence of Voltage-gated inwardly rectifying potassium channel KCNH2 (Q12809 whole entry): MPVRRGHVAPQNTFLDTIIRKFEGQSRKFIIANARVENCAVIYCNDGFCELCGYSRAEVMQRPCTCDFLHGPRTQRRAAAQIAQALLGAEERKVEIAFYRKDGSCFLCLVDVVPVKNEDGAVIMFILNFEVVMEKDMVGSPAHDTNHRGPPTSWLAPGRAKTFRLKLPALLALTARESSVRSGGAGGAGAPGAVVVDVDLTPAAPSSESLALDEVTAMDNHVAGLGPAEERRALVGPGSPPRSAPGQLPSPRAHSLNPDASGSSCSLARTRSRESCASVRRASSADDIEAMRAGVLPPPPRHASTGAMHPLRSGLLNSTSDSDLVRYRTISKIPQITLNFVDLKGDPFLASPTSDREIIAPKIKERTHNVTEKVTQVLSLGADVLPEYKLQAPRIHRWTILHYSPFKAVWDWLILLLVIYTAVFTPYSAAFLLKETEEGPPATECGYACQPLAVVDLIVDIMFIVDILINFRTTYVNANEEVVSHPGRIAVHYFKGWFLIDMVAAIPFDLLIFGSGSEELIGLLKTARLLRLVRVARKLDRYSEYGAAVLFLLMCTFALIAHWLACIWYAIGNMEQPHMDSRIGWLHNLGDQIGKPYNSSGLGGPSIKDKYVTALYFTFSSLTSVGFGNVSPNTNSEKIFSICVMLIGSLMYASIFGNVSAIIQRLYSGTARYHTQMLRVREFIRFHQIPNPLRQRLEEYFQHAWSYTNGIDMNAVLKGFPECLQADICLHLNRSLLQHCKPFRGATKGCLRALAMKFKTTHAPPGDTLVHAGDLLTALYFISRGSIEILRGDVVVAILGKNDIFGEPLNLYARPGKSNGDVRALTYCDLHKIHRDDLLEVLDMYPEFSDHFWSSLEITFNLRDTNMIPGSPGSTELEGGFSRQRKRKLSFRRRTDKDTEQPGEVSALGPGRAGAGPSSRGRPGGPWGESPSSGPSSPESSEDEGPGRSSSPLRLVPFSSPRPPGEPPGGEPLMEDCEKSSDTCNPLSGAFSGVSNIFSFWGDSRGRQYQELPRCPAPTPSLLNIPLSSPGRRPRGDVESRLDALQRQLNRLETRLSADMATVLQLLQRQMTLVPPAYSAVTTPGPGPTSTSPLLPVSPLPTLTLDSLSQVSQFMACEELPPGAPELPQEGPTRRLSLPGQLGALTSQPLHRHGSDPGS
Sequence of Cytochrome P450 2D6 (P10635 whole entry): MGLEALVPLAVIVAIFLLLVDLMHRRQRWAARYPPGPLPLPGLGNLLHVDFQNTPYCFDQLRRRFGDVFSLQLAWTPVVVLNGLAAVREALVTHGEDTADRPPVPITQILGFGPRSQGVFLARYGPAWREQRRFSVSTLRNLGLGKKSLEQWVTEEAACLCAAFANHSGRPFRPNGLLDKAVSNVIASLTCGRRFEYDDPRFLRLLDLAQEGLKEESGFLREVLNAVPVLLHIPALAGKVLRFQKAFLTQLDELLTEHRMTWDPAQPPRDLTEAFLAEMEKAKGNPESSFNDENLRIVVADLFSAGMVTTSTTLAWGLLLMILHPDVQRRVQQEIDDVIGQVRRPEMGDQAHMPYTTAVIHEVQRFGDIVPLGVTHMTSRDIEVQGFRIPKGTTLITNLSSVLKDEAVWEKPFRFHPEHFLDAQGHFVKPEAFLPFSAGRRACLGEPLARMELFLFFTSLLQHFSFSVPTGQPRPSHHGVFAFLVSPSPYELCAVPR

EC50 (Hepatitis C virus [1]): 0.017 µM
EC50 (Hepatitis C virus [2]): 0.043 µM
SMILES: Cn1c(C2(NC(=O)c3ccc4c(C5CCCC5)c(-c5ncc(Br)cn5)n(C)c4c3)CCC2)nc2ccc(/C=C/C(=O)O)cc21 [DELEOBUVIR]

AUC(0-t) at 6 h [4]: 4.93 µM·h
EC50 (Cytochrome P450 2C9): > 40 µM
EC50 [5]: > 50 µM
concentration at 6 h [6]: 14300 nM
EC50 (Cytochrome P450 2C19): > 40 µM
EC50 (Hepatitis C virus [7]): 0.028 µM
Stability (Liver microsome [8]): 98%
EC50 (Hepatitis C virus [9]): 0.005 µM
Papp [10]: 43 ×10⁻⁶ cm/s
AUC(0-t) at 6 h [11]: 11.2 µM·h
concentration at 6 h [12]: 409 nM
Stability (Liver microsome [13]): 98%
EC50 (Cytochrome P450 2D6): > 40 µM
concentration at 6 h [16]: 440 nM
solubility [17]: 760 µg/mL (≈ 1180 µM)
EC50 (Cytochrome P450 3A4): 14 µM
concentration at 6 h [18]: 17500 nM
EC50 (Hepatitis C virus [19]): 0.006 µM
clearance [20]: 9 mL/min/kg
EC50 (Cytochrome P450 1A2): > 40 µM
SMILES: COc1ccc2c(c1)[C@@H]1C[C@]1(C(=O)N1C3CC1CN(C)C3)Cn1c-2c(C2CCCCC2)c2ccc(C(=O)NS(=O)(=O)N(C)C)cc21
EC50 [3]: 20 µM
CC50 [14]: 13 µM
EC50 [15]: 30 µM
EC50 (HepG2): 25 µM

EC50 [5]: > 50 µM
concentration at 4 h [21]: 17 nM
EC50 (Hepatitis C virus [7]): 0.059 µM
Stability (Liver microsome [8]): 95%
AUC(0-t) at 4 h [22]: 1.42 µM·h
EC50 (Hepatitis C virus [9]): 0.038 µM
Papp [10]: 25 ×10⁻⁶ cm/s
clearance [23]: 96 mL/min/kg
Stability (Liver microsome [13]): 84%
concentration at 4 h [24]: 8800 nM
Kp at 4 h [25]: > 200
concentration at 4 h [26]: 5000 nM
solubility [17]: 57 µg/mL (≈ 93.9 µM)
AUC(0-t) at 4 h [27]: 0.041 µM·h
EC50 (Hepatitis C virus [19]): 0.045 µM
concentration at 4 h [28]: 11 nM
SMILES: COc1ccc2c(c1)C1CC1(C(=O)N1CC(O)C1)Cn1c-2c(C2CCCCC2)c2ccc(C(=O)NS(=O)(=O)N(C)C)cc21 (racemic)
CC50 [14]: > 10 µM

— ChEMBL document CHEMBL3124792, “Discovery and preclinical characterization of the cyclopropylindolobenzazepine BMS-791325, a potent allosteric inhibitor of the hepatitis C virus NS5B polymerase” (J Med Chem, 2014)
